Results taken from US10864159B2, “Method and composition for treating ocular hypertension and glaucoma” (Santen Pharmaceutical Co., Ltd., priority 2008, dated 2020).

Assay: Absorption of preservative-free tafluprost to low density polyethylene containers, remaining concentration by HPLC
Type: physicochemical
Details: LDPE unit dose container, 20 weeks at 5° C., 25° C. and 40° C.
Method: The effect of nonionic surfactant on the absorption of preservative-free tafluprost to low density polyethylene containers was studied for 20 weeks at 5° C., 25° C. and 40° C. Three different polysorbate 80 (Tween 80) concentrations, namely 0.05%, 0.075% and 0.1% were used. The composition of the preservative-free aqueous tafluprost formulation except polysorbate 80 was 0.0015% tafluprost, 2.25% glycerol, 0.2% sodium dihydrogen phosphate dihydrate, 0.05% disodium edetate and sodium hydroxide and/or hydrochloric acid to adjust the pH to 5.0-6.7. 0.3 ml of the composition prepared above was filled in the body part of the unit dose container (LDPE) and sealed by heating with the upper part of the container (LDPE). The inner volume of the unit dose container was ca. 1 ml. The container was packaged into paper coated aluminium-polyethylene foil and stored in refrigerator or incubator. The remaining concentration of tafluprost was measured by HPLC.

absorption of tafluprost to polyethylene (polysorbate 80 0.05 to 0.1%): inhibits the absorption of tafluprost
Compound: CC(C)OC(=O)CCC/C=C\C[C@@H]1[C@@H](/C=C/C(F)(F)COc2ccccc2)[C@H](O)C[C@@H]1O [tafluprost]
absorption of tafluprost to polyethylene (polysorbate 80 0.075 to 0.1%): good inhibition effect of absorption of tafluprost
